Laboratory results from patent US9290484B2, “Furyl and thienyl triazole derivatives and therapeutic uses thereof” (University of Medicine and Dentistry of New Jersey, priority 2013, dated 2016).
≈ marks a conversion by molar mass, not a printed value.

Assays:
E. coli = assay: microbe, parasite or virus in culture; settings: for Antibacterial MIC E. Coli: serial two-fold dilutions, IA = Inactive
Protocol: (§1) Compounds were tested using E. coli, G. vaginalis or S. aureus. Bacteria were grown on appropriate media containing a range of concentrations of the test compounds which were obtained by serial two-fold dilutions. Concentrations used were at least twice the MIC to at least ½ the break point for susceptibility to inhibition. MICs were determined spectrophotometrically by measuring changes in absorbance of bacterial cultures in the absence and presence of the test compounds.

G. vaginalis = assay: Antibacterial MIC, G. vaginalis; type: cell-based, Gardnerella vaginalis; settings: serial two-fold dilutions, IA = Inactive
Protocol: as §1

[1] = system: nitric oxide production induced by gamma interferon in PAM212 keratinocytes; settings: read-out: Nitric oxide inhibition IC50, 100 U/ml gamma interferon, nitrite at 72 hours
Protocol: The assay for measurement of anti-inflammatory activity is based on the ability of the cytokine gamma interferon to induce the formation of nitric oxide synthase and subsequently of nitric oxide itself in keratinocytes.
For each assay the cells were inoculated into a 24-well tissue culture plate at 250,000 cells per well in growth medium. After 24 hours the medium was changed to phenol red and serum-free DMEM containing 100 U/ml of gamma interferon. Nitric oxide production was thereby initiated and at 72 hours post inoculation was quantified spectrophotometrically by measuring the accumulation of nitrite in the culture medium using the Greiss reagent. This was done by drawing an aliquot of the culture medium and mixing it with equal volumes of 1.0% sulfanilamide and 0.1% N-1-naphthylethylene diamine in 50% phosphoric acid. […] Compounds according to the present invention were assayed for their anti-inflammatory activity by examining their ability to suppress nitric oxide production in this assay.

SMILES	Antibacterial MIC E. Coli (E. coli)	Antibacterial MIC G. Vaginalis (G. vaginalis)	IC50 [1]	MIC (E. coli; Escherichia coli, read-out: Antibacterial MIC E. Coli)	MIC (G. vaginalis; Gardnerella vaginalis)
O=[N+]([O-])c1ccc(C=CC=Nn2c(S)nnc2-c2ccco2)o1 [Compound 3c, 4-[imino-(3-(5-nitro-2-furyl)-2-ethylenyl)]-3-mercapto-5-(2-furoyl)-4H-1,2,4-triazole]	16.6 µg/mL	16.6 µg/mL	–	–	–
O=[N+]([O-])c1ccccc1C=CC=Nn1c(S)nnc1-c1cccs1 [Compound 3a, 4-[Imino-(3-(−2-nitrophenyl)-2-ethylenyl)]-3-mercapto-5-(2-thienyl)-4H-1,2,4-triazole]	–	–	14 µM	–	–
O=[N+]([O-])c1ccc(C=Nn2c(S)nnc2-c2cccs2)o1 [Compound 3d]	16.0 µg/mL	3.2 µg/mL	–	–	–
O=C1CN(/N=C/c2ccc([N+](=O)[O-])o2)C(=O)N1 [NF, Nitrofurantoin, reference compound]	–	–	–	1.2 µg/mL (≈ 5.04 µM)	11.9 µg/mL (≈ 50 µM)
